The subject of one test is HCT-116. Put plainly: Antiproliferative activity against human HCT116 cells by MTT assay. The format is functional. In general terms: Formazan colour is commonly taken as a measure of viable cells.
Turning to `CCC(=O)O[C@H]1C[C@@H]2[C@@]3(C)CCC[C@@]4(C[C@@H]4C)[C@@H]3CC[C@@]2(C)[C@@H]2CCC3=C(C(=O)O[C@H]3C)[C@@]12C`, the GI50 is more than 30 µM.

On to `CC[C@@]1(C)CCC[C@]2(C)[C@H]3C[C@H](O)[C@]4(C)C5=C(CC[C@H]4[C@]3(C)CC[C@@H]12)C(=O)C[C@H]5O`, for which the GI50 is more than 30 µM.

Regarding `CCC(O)CC(=O)O[C@H]1C[C@@H]2[C@@]3(C)CCC[C@](C)([C@H](C)OC(C)=O)[C@@H]3CC[C@@]2(C)[C@@H]2C[C@H](O)C(C(C)=O)=C[C@@]12C` (some centres undefined), the GI50 is more than 30 µM.

In the case of `CC/C1=C/CO[C@@]2(C)[C@@H](O)C[C@@H]3[C@@]4(C)CCC[C@](C)(CC)[C@@H]4CC[C@@]3(C)[C@@H]2CC1`, the 50% growth inhibitory concentration (GI50) was more than 30 µM.

In turn, `CCC(=O)O[C@@H](C)[C@@]1(C)CCC[C@@]2(C)[C@H]1CC[C@]1(C)[C@@H]2C[C@H](OC(=O)CC(O)CC)[C@]2(C)C3=C(CC[C@@H]12)[C@H](C)OC3=O` (some centres undefined) registered a GI50 of more than 30 µM.

`CC[C@@]1(C)CCC[C@]2(C)[C@H]3C[C@H](OC(=O)CC(C)O)[C@]45C[C@@H](O)[C@H]4C(C(C)=O)=CC[C@H]5[C@]3(C)CC[C@@H]12` (some centres undefined): the concentration for 50% growth inhibition (GI50) turned out to be 14 µM. This lies in the double-digit micromolar range.

In the case of `CC(=O)OC(C)CC(=O)O[C@H]1C[C@@H]2[C@@]3(C)CCC[C@](C)([C@H](C)OC(C)=O)[C@@H]3CC[C@@]2(C)[C@@H]2C[C@@H](O)C(C(C)=O)=C[C@@]12C` (some centres undefined), the GI50 was more than 30 µM.

The subject of another test is A549. Put plainly: Antiproliferative activity against human A549 cells by MTT assay. The format is functional.
As for `CCC(=O)O[C@H]1C[C@@H]2[C@@]3(C)CCC[C@@]4(C[C@@H]4C)[C@@H]3CC[C@@]2(C)[C@@H]2CCC3=C(C(=O)O[C@H]3C)[C@@]12C`, the GI50 was more than 30 µM.

Consider `CC[C@@]1(C)CCC[C@]2(C)[C@H]3C[C@H](O)[C@]4(C)C5=C(CC[C@H]4[C@]3(C)CC[C@@H]12)C(=O)C[C@H]5O`, for which the GI50 is more than 30 µM.

Molecule `CCC(O)CC(=O)O[C@H]1C[C@@H]2[C@@]3(C)CCC[C@](C)([C@H](C)OC(C)=O)[C@@H]3CC[C@@]2(C)[C@@H]2C[C@H](O)C(C(C)=O)=C[C@@]12C` (some centres undefined) had a 50% growth inhibitory concentration (GI50) of more than 30 µM.

Molecule `CC/C1=C/CO[C@@]2(C)[C@@H](O)C[C@@H]3[C@@]4(C)CCC[C@](C)(CC)[C@@H]4CC[C@@]3(C)[C@@H]2CC1` yielded a concentration for 50% growth inhibition (GI50) of more than 30 µM.

On to `CCC(=O)O[C@@H](C)[C@@]1(C)CCC[C@@]2(C)[C@H]1CC[C@]1(C)[C@@H]2C[C@H](OC(=O)CC(O)CC)[C@]2(C)C3=C(CC[C@@H]12)[C@H](C)OC3=O` (some centres undefined), for which the 50% growth inhibitory concentration (GI50) is more than 30 µM.

The molecule `CC[C@@]1(C)CCC[C@]2(C)[C@H]3C[C@H](OC(=O)CC(C)O)[C@]45C[C@@H](O)[C@H]4C(C(C)=O)=CC[C@H]5[C@]3(C)CC[C@@H]12` (some centres undefined) had a concentration for 50% growth inhibition (GI50) of 12 µM. This counts as double-digit micromolar.

The molecule `CC(=O)OC(C)CC(=O)O[C@H]1C[C@@H]2[C@@]3(C)CCC[C@](C)([C@H](C)OC(C)=O)[C@@H]3CC[C@@]2(C)[C@@H]2C[C@@H](O)C(C(C)=O)=C[C@@]12C` (some centres undefined) showed a concentration for 50% growth inhibition (GI50) of more than 30 µM.

A further test concerns Bel-7402. The test can be described thus: Antiproliferative activity against human Bel7402 cells by MTT assay. The test is classed as functional.
As to `CCC(=O)O[C@H]1C[C@@H]2[C@@]3(C)CCC[C@@]4(C[C@@H]4C)[C@@H]3CC[C@@]2(C)[C@@H]2CCC3=C(C(=O)O[C@H]3C)[C@@]12C`, the 50% growth inhibitory concentration (GI50) was more than 30 µM.

As to `CC[C@@]1(C)CCC[C@]2(C)[C@H]3C[C@H](O)[C@]4(C)C5=C(CC[C@H]4[C@]3(C)CC[C@@H]12)C(=O)C[C@H]5O`, the GI50 is more than 30 µM.

In the case of `CCC(O)CC(=O)O[C@H]1C[C@@H]2[C@@]3(C)CCC[C@](C)([C@H](C)OC(C)=O)[C@@H]3CC[C@@]2(C)[C@@H]2C[C@H](O)C(C(C)=O)=C[C@@]12C` (some centres undefined), the concentration for 50% growth inhibition (GI50) was more than 30 µM.

Regarding `CC/C1=C/CO[C@@]2(C)[C@@H](O)C[C@@H]3[C@@]4(C)CCC[C@](C)(CC)[C@@H]4CC[C@@]3(C)[C@@H]2CC1`, the 50% growth inhibitory concentration (GI50) was more than 30 µM.

With `CCC(=O)O[C@@H](C)[C@@]1(C)CCC[C@@]2(C)[C@H]1CC[C@]1(C)[C@@H]2C[C@H](OC(=O)CC(O)CC)[C@]2(C)C3=C(CC[C@@H]12)[C@H](C)OC3=O` (some centres undefined), the GI50 is more than 30 µM.

Molecule `CC[C@@]1(C)CCC[C@]2(C)[C@H]3C[C@H](OC(=O)CC(C)O)[C@]45C[C@@H](O)[C@H]4C(C(C)=O)=CC[C@H]5[C@]3(C)CC[C@@H]12` (some centres undefined) registered a concentration for 50% growth inhibition (GI50) of 14 µM. This lies in the double-digit micromolar range.

In the case of `CC(=O)OC(C)CC(=O)O[C@H]1C[C@@H]2[C@@]3(C)CCC[C@](C)([C@H](C)OC(C)=O)[C@@H]3CC[C@@]2(C)[C@@H]2C[C@@H](O)C(C(C)=O)=C[C@@]12C` (some centres undefined), the 50% growth inhibitory concentration (GI50) was more than 30 µM.

In a further test the test system is Jurkat. The test can be described thus: Antiproliferative activity against human Jurkat cells by MTT assay. The format is functional.
In the case of `CCC(=O)O[C@H]1C[C@@H]2[C@@]3(C)CCC[C@@]4(C[C@@H]4C)[C@@H]3CC[C@@]2(C)[C@@H]2CCC3=C(C(=O)O[C@H]3C)[C@@]12C`, the concentration for 50% growth inhibition (GI50) is more than 30 µM.

The molecule `CC[C@@]1(C)CCC[C@]2(C)[C@H]3C[C@H](O)[C@]4(C)C5=C(CC[C@H]4[C@]3(C)CC[C@@H]12)C(=O)C[C@H]5O` yielded a GI50 of more than 30 µM.

For the molecule `CCC(O)CC(=O)O[C@H]1C[C@@H]2[C@@]3(C)CCC[C@](C)([C@H](C)OC(C)=O)[C@@H]3CC[C@@]2(C)[C@@H]2C[C@H](O)C(C(C)=O)=C[C@@]12C` (some centres undefined), the concentration for 50% growth inhibition (GI50) is more than 30 µM.

Turning to `CC/C1=C/CO[C@@]2(C)[C@@H](O)C[C@@H]3[C@@]4(C)CCC[C@](C)(CC)[C@@H]4CC[C@@]3(C)[C@@H]2CC1`, the GI50 is more than 30 µM.

As to `CCC(=O)O[C@@H](C)[C@@]1(C)CCC[C@@]2(C)[C@H]1CC[C@]1(C)[C@@H]2C[C@H](OC(=O)CC(O)CC)[C@]2(C)C3=C(CC[C@@H]12)[C@H](C)OC3=O` (some centres undefined), the 50% growth inhibitory concentration (GI50) was more than 30 µM.

`CC(=O)OC(C)CC(=O)O[C@H]1C[C@@H]2[C@@]3(C)CCC[C@](C)([C@H](C)OC(C)=O)[C@@H]3CC[C@@]2(C)[C@@H]2C[C@@H](O)C(C(C)=O)=C[C@@]12C` (some centres undefined) had a GI50 of more than 30 µM.

The test system of another test is K562. Put plainly: Antiproliferative activity against human K562 cells by MTT assay. The test is classed as functional.
With `CCC(=O)O[C@H]1C[C@@H]2[C@@]3(C)CCC[C@@]4(C[C@@H]4C)[C@@H]3CC[C@@]2(C)[C@@H]2CCC3=C(C(=O)O[C@H]3C)[C@@]12C`, the GI50 was more than 30 µM.

For `CC[C@@]1(C)CCC[C@]2(C)[C@H]3C[C@H](O)[C@]4(C)C5=C(CC[C@H]4[C@]3(C)CC[C@@H]12)C(=O)C[C@H]5O`, the 50% growth inhibitory concentration (GI50) was more than 30 µM.

Molecule `CCC(O)CC(=O)O[C@H]1C[C@@H]2[C@@]3(C)CCC[C@](C)([C@H](C)OC(C)=O)[C@@H]3CC[C@@]2(C)[C@@H]2C[C@H](O)C(C(C)=O)=C[C@@]12C` (some centres undefined) yielded a 50% growth inhibitory concentration (GI50) of more than 30 µM.

Take `CC/C1=C/CO[C@@]2(C)[C@@H](O)C[C@@H]3[C@@]4(C)CCC[C@](C)(CC)[C@@H]4CC[C@@]3(C)[C@@H]2CC1`: the 50% growth inhibitory concentration (GI50) was more than 30 µM.

Molecule `CCC(=O)O[C@@H](C)[C@@]1(C)CCC[C@@]2(C)[C@H]1CC[C@]1(C)[C@@H]2C[C@H](OC(=O)CC(O)CC)[C@]2(C)C3=C(CC[C@@H]12)[C@H](C)OC3=O` (some centres undefined) gave a GI50 of more than 30 µM.

`CC[C@@]1(C)CCC[C@]2(C)[C@H]3C[C@H](OC(=O)CC(C)O)[C@]45C[C@@H](O)[C@H]4C(C(C)=O)=CC[C@H]5[C@]3(C)CC[C@@H]12` (some centres undefined): the GI50 turned out to be 11 µM.

`CC(=O)OC(C)CC(=O)O[C@H]1C[C@@H]2[C@@]3(C)CCC[C@](C)([C@H](C)OC(C)=O)[C@@H]3CC[C@@]2(C)[C@@H]2C[C@@H](O)C(C(C)=O)=C[C@@]12C` (some centres undefined) gave a GI50 of more than 30 µM.

For orientation: GI50 means the concentration giving 50% growth inhibition.

Source of the values: ChEMBL document CHEMBL4602669, “Bishomoscalarane Sesterterpenoids from the Sponge Dysidea granulosa Collected in the South China Sea” (2020).
